The source made the active and inactive calls. The rule behind the calls is not given here.

Data set [1] deals with AML12. Briefly: Cytoprotective activity against CoCl2-induced mouse AML12 cells assessed as increase in cell survival rate by CCK8 method. In kind it is functional, cell-based.
The species entered for data set [2] is Mus musculus. Briefly: Hepatoprotective activity against ischemia-reperfusion injury mouse model assessed as reduction in MPO expression level by IHC staining based analysis. In kind it is functional, organism-based.
Data set [3] relates to Mus musculus. Briefly: Hepatoprotective activity against ischemia-reperfusion injury mouse model assessed as reduction in ALT level in serum at 10 mg/kg, ip administered once daily for 3 days. To be noted: time 3.0 day. It counts as functional, organism-based.
Data set [4] is filed under the species Mus musculus. Briefly: Hepatoprotective activity against ischemia-reperfusion injury mouse model assessed as reduction in cleaved caspase-3 by IHC staining based analysis. It counts as functional, organism-based.
In data set [5] the test system is Mus musculus. Briefly: Hepatoprotective activity against ischemia-reperfusion injury mouse model assessed as reduction in AST level in serum at 10 mg/kg, ip administered once daily for 3 days. It counts as functional, organism-based. To be noted: time 3.0 day.
The subject of data set [6] is Mus musculus. Briefly: Hepatoprotective activity against ischemia-reperfusion injury mouse model assessed as reduction in LDH level in serum at 10 mg/kg, ip administered once daily for 3 days. It counts as functional, organism-based. To be noted: time 3.0 day.
For data set [7], the system named is AML12. Briefly: Cytotoxicity against mouse AML12 cells assessed as reduction in cell survival rate at by CCK8 assay. In kind it is toxicity, cell-based. (In general: Tetrazolium assays rely on reduction of a dye to a coloured formazan, in cell work by metabolically active cells.)
The species named for data set [8] is Mus musculus. Briefly: Hepatoprotective activity against ischemia-reperfusion injury mouse model assessed as reduction in leukocyte infiltration by H and E staining based analysis. It counts as functional, organism-based.
The species entered for data set [9] is Mus musculus. Briefly: Hepatoprotective activity against ischemia-reperfusion injury mouse model assessed as reduction in necrocytosis by H and E staining based analysis. It counts as functional, organism-based.
The species named for data set [10] is Mus musculus. Briefly: Hepatoprotective activity against ischemia-reperfusion injury mouse model assessed as reduction in liver ecchymosis by H and E staining based analysis. It counts as functional, organism-based.
The species entered for data set [11] is Mus musculus. Briefly: Hepatoprotective activity against ischemia-reperfusion injury mouse model assessed as reduction in TUNEL positive cells by TUNEL staining based analysis. In kind it is functional, organism-based.
The species entered for data set [12] is Mus musculus. Briefly: Hepatoprotective activity against ischemia-reperfusion injury mouse model assessed as reduction in translocation of HMGB1 from nucleus to cytoplasm by IHC staining based analysis. It counts as functional, organism-based.
The subject of data set [13] is AML12. Briefly: Cytoprotective activity against CoCl2-induced mouse AML12 cells assessed as increased cell survival rate at 1.25 to 10 uM by CCK8 assay. In kind it is functional, cell-based. To be noted: dose 1.25-10 µM.

`C/C=C1\NC(=O)[C@H](Cc2c[nH]c3ccccc23)N(C)C1=O`: the result in the data set on AML12 [1] was inactive.
In the case of `C=CC(C)(C)C(=O)Nc1c(C(=O)C[C@@H]2NC(=O)[C@@H]3CCCN3C2=O)ccc(O)c1CC=C(C)C`, the result in the data set on AML12 [1] was inactive.
The same measure, in the same setting: with `C=CC(C)(C)[C@@]1(C[C@@H]2NC(=O)[C@]3(OC)CCCN3C2=O)C(=O)Nc2c1ccc1c2C=CC(C)(C)O1` the entry was “inactive”.
Take `C=CC(C)(C)[C@]1(C[C@@H]2NC(=O)[C@@H]3CCCN3C2=O)C(=O)Nc2c1ccc(O)c2CC=C(C)C`: the result in the data set on AML12 [1] was inactive.
The same measure, in the same setting: for `CC1(C)C=Cc2c(ccc3c2N(O)C(=O)[C@@]32C[C@@]34NC(=O)[C@]5(CCCN5C3=O)C[C@H]4C2(C)C)O1` the value was “inactive”; for `CC1(C)C=Cc2c(ccc3c2NC(=O)[C@@]32C[C@@]34NC(=O)[C@]5(CCCN5C3=O)C[C@H]4C2(C)C)O1`, “inactive”.
On to `C=CC(C)(C)[C@]1(C[C@@H]2NC(=O)[C@]3(OC)CCCN3C2=O)C(=O)Nc2c1ccc1c2C=CC(C)(C)O1` [NOTOAMIDE Q], for which the result in the data set filed under Mus musculus [2], with Mus musculus [3], in the data set listed under Mus musculus [4], in the data set with Mus musculus [5], with Mus musculus [6] and in the data set filed under Mus musculus [8] was Active. The outcome in the data set filed under Mus musculus [9], in the data set listed under Mus musculus [10], in the data set listed under Mus musculus [11], in the data set filed under Mus musculus [12], with AML12 [1] and in the data set on AML12 [13] was Active. Besides, the Activity entry with AML12 [7] is “Non-Toxic”.

The record behind these values is ChEMBL document CHEMBL5325504, “Bioactive Indole Alkaloid from Aspergillus amoenus TJ507 That Ameliorates Hepatic Ischemia/Reperfusion Injury” (J Nat Prod, 2023).
